In patent US7445802B2, “Site-specific in situ generation of allicin using a targeted alliinase delivery system for the treatment of cancers, tumors, infectious diseases and other allicin-sensitive diseases” (Yeda Research and Development Co. Ltd, priority 2000, dated 2008):

What was measured:
[1] = system: CB-2 cells; assay: Trypan blue viability of CB-2 cells; format: cell-based
Protocol: (§1) The following cell lines were used: N87 human gastric tumor cell line expressing the ErbB-2 receptors (described by Park et al, 1990); CB-2 cell line, generated by transfection of Chinese hamster ovary (CHO) cells with mammalian expression vectors that direct expression of ErbB-2 (Tzahar et al, 1996); and 32D cell line known to be devoid of the ErbB-2 receptors (described by Pinkas-Kramarski, 1996).
(§2) Viability of living cells was done after staining with Trypan Blue (0.025%) for 10 minutes.
(§3) Cell cultures of N87 (20,000 cells/well) were grown in 96-well plates and 32D cells were grown in suspension in 12-well plates (200,000 cells/ml). Cells were treated with: none, mAb ErbB-2 or mAb-ErbB-2-alliinase conjugate (total protein 2 μg/20,000 cells) for 1 hour at 37° C.

[2] = system: N87 cancer cells; assay: Trypan blue viability of N87 cells; format: cell-based; settings: alliin only, mAb ±alliin, or conjugate without alliin
Protocol: as §1, §2, §3

[3] = system: N-87 tumors; assay: In vivo assay of antitumor effects (tumor growth) in nude mice injected with N-87 cells; settings: alliin alone i.p., control mice
Protocol: N-87 cultured cells (3-5×10^6) were injected subcutaneously into the back of the mice. One to 5 days later, groups of 6 to 8 mice received either none or mAb-alliinase conjugate by intravenous injection (20 μg mAb/mouse). Conjugates were injected with 3-4 days intervals.
All mice were supplemented with Pyridoxine (vitamin B6) in the drinking water (100 mg/L). […] Tumor size was measured every second day.
All the animal groups were injected with N-87 cells 1-5 days before any treatment. • Group 1. […] Mice were treated with mAb-alliinase conjugates and alliin was administered regularly as described below.
MAb-alliinase conjugate was injected I.V. every 3-4 days. Mice were treated ×5 with the conjugate (20 μg/mouse) in. 3-4 day intervals. Total amount of mAb in the conjugate/mouse was 0.1 mg.

[4] = background statement; cited from earlier work
[5] = system: CB-2 cells; assay: [3H]-thymidine incorporation (cell proliferation) in CB-2 cells; format: cell-based, Chinese hamster; settings: allicin 0-54 μM, 16 h
Protocol: as §1
[Methyl-^3H]thymidine incorporation (Amersham Pharmacia Biotech, UK) into DNA was measured in 96-well plates. Cells (1,000-20,000 cells/well) were grown 6 h after seeding at 37° C. Cells were treated with conjugates for 1 hour and then 3×washed with medium. […] Cells were harvested after 16 hours incubation at 37° C.
Different concentrations of pure allicin were applied to tissue cultured […] CB-2 cancer cells for quantitative determination of the effective concentration. Thus, CB-2 cells were cultured in 96-well plate (2000 cells/well) for 6-16 h at 37° C. Pure allicin was added (10 μl/well) from pre-diluted allicin solutions in PBS to final concentrations of 0-54 μM (0-9 μg/ml). [^3H]-Thymidine diluted with medium was added to the cell culture (0.8 μCi/well). Cells were harvested after incubation for 16 h at 37° C. and the level of incorporated [^3H]-thymidine was measured to determine the extent of cell proliferation. […]

S-allyl-L-cysteine sulfoxide [alliin]
cell damage (Trypan blue) ([1]; CB-2, alliin only, mAb ±alliin, or conjugate without alliin): not damaged | cell damage (Trypan blue) [2]: not damaged | tumor size [3]: no effect on the tumor size

C=CCS[S+]([O-])CC=C (stereo not drawn) [allicin, thio-2-propene-1-sulfinic acid S-allyl ester]
lifetime after being mixed with blood [4]: disappears within a few minutes | [3H]-thymidine incorporation (DNA synthesis) [5]: inhibits DNA synthesis | lethal concentration ([1]; Trypan blue staining, CB-2 cells): about 20 μM
